Assay results reported in PubChem BioAssay AID651889 (Broad Institute, 2012).
Activity calls are given as the source filed them.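 The calls were made as follows: active = IC50 under 25 times the IC50 of the reference antimalarial drug in the parasite growth test; inactive = the rest.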

Test system: P. falciparum NF54 in erythrocytes, 3H-hypoxanthine incorporation, 72 h
Experiment: P. falciparum blood-stage growth inhibition, dose response, NF54 strain, plate reader, dry powder (AID 651889)

Structure (SMILES): C[C@@H]1CN([C@@H](C)CO)C(=O)c2cccc(NC(=O)c3ccncc3)c2O[C@H]1CN(C)Cc1ccc(Oc2ccccc2)cc1
- IC50: 580 nM (inactive)
